# Source: patent US7914768B2, “Stabiliser for radiopharmaceuticals” (GE Healthcare Limited, priority 2000, dated 2011)
# Experiment: Rcp of ^99mTc-HMPAO after addition of a single stabiliser, two step process (Example 1)
# Assay type: physicochemical
# Details: additive added 2 minutes post-radiolabelling; amount as in table; n = 3 (*n = 1)
# Experimental: To each of ten vials each containing 0.5 mg of HMPAO and 4.0 μg of Sn^2+ (stannous), was added sodium pertechnetate (1.48 GBq in 5 ml of saline) to carry out the radiolabelling. To each of 9 of the ten reconstituted vials was individually added the compound shown in Table 1 at a time of 2 minutes post-radiolabelling. Nothing was added to the remaining vial. At 1 minute and 3 hours after the addition, an aliquot was taken from each vial and the Rcp measured by a combination of three chromatographic systems (stationary phase/developing solvent: silica gel/methyl ethyl ketone, silica gel/saline, filter paper/50% aqueous acetonitrile).
Structure (SMILES),Rcp 1 min from addition (%),Rcp 3 hours from addition (%)
"Nc1ccc(C(=O)[O-])cc1.[Na+] [Sodium4-amino-benzoate, sodium 4-aminobenzoate]",69 ± 5%,39 ± 11%
O=C(NCCO)c1cc(O)ccc1O [Gentisic acid ethanolamide],61 ± 3%,29 ± 13%
"Nc1ccc(C(=O)O)cc1 [4-Aminobenzoic acid, 4-aminobenzoic acid]",80 ± 8%,67 ± 5%
O=C(O)CCC(=O)O [Succinic acid],51* %,14* %
[Cl][Co][Cl] [Cobalt chloride],94 ± 3%,89 ± 2%
O=C1O[C@H]([C@@H](O)CO)C(O)=C1O [Ascorbic acid],83* %,41* %
"O=P(O)(O)CP(=O)(O)O [Methylene diphosphonic acid, methylenediphosphonic acid]",79* %,30* %
O=C1O[C@H]([C@@H](O)CO)C([O-])=C1O.[Na+] [Sodium ascorbate],90* %,51* %
O=C(O)c1cc(O)ccc1O [Gentisic acid],87 ± 2%,77 ± 3%
